The structures appear in SMILES notation. Where two headings read alike, the source gives them in different places.

Test [1] concerns the target α4β2* nicotinic receptor (Rattus norvegicus, UniProt P09483+P12390). The test can be described thus: High affinity [3H]nicotine binding assay. Set-up: The pellet containing the striatal membranes was resuspended; from tissue; host or cells: rat striatal membranes.
In test [2] the target is T1, dopamine transporter (DAT) (Rattus norvegicus, UniProt P23977).
T1 construct: Striata were homogenized in 20 ml of ice-cold sucrose solution; from tissue; host or cells: striatal synaptosomes
The test can be described thus: [3H]Dopamine uptake assay, striatal synaptosomes. The test is classed as biochemical.

The target in test [3] is T2, α7* nicotinic receptor (Rattus norvegicus, UniProt Q05941).
T2 construct: Whole rat brain (minus cortex, striatum and cerebellum) was homogenized; from tissue; host or cells: rat whole brain membranes (minus cortex, striatum and cerebellum)
The test is described as follows: [3H]Methyllycaconitine ([3H]MLA) binding assay.

Test [4] addresses T3, serotonin transporter (SERT) (Rattus norvegicus, UniProt P31652).
T3 construct: Rat hippocampus was homogenized in 20 mL cold 0.32 M sucrose; from tissue; host or cells: rat hippocampal synaptosomes
The test can be described thus: [3H]5-HT uptake assay, hippocampal synaptosomes. In kind it is biochemical.

Test [5] deals with methamphetamine-evoked endogenous DA release from striatal slices. The test can be described thus: Methamphetamine-evoked endogenous DA overflow from superfused striatal slices. The test is classed as cell-based. The conditions noted are these: read-out: Inhibition of Methamphetamine Evoked DA Overflow IC50 (Mean).
The target of test [6] is α6β2* nicotinic receptor (Rattus norvegicus, UniProt P12390+P43143). The test can be described thus: Nicotine-evoked [3H]DA overflow from superfused striatal slices. In kind it is cell-based.
[7] abbreviates: Table 3, earlier study, read-out: Ki [3H]-Nicotine Binding Assay.
Where [8] appears, read: Table 1, rat striatal membranes, read-out: [3H]Nicotine Binding (Ki) α4β2*.
Where [9] appears, read: Table 1, rat whole brain membranes, read-out: [3H]MLA Binding (Ki) α7*.
Setting [10] is: Table 3, earlier study, read-out: Ki [3H]-Dopamine Uptake Assay.
Setting [11] is: Table 1, read-out: [3H]5-HT Uptake (Ki) SERT.
Where [12] appears, read: Table 1, read-out: [3H]DA Uptake (Ki).

T3 sequence (P31652 whole entry): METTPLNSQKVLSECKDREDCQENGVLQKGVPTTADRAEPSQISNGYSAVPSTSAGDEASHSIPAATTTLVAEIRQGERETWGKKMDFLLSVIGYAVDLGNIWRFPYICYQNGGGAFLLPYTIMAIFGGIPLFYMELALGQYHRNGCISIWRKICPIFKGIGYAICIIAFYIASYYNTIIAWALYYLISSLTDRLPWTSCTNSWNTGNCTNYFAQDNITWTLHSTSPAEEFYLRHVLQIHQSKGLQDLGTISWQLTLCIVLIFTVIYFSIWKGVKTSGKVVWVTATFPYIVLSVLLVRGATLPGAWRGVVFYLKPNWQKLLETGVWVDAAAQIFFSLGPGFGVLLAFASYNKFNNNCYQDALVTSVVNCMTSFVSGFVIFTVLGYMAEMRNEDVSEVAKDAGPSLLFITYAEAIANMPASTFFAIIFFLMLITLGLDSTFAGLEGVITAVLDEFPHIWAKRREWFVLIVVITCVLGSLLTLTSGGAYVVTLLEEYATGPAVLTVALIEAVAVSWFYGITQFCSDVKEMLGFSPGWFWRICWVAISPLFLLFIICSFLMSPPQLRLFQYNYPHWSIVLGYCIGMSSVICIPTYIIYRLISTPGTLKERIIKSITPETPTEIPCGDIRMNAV
T1 sequence (P23977 whole entry): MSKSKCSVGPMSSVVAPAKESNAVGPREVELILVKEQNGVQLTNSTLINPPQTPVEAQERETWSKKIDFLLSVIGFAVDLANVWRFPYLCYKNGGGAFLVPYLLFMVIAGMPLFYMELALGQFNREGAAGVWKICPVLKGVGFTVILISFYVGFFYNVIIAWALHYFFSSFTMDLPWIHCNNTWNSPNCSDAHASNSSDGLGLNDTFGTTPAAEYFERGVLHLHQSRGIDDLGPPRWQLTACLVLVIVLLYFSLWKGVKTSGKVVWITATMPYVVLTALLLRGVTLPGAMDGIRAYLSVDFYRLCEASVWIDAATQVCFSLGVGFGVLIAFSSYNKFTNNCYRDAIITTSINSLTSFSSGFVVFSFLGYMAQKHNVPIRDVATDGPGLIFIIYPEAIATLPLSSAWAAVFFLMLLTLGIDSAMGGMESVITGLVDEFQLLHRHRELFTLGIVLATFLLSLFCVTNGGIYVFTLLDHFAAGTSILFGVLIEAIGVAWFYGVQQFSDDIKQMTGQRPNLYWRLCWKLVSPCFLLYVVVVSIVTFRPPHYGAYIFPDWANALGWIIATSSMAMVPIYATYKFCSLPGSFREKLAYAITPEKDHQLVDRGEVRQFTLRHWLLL
Sequence of α4β2* nicotinic receptor (P09483 31-630): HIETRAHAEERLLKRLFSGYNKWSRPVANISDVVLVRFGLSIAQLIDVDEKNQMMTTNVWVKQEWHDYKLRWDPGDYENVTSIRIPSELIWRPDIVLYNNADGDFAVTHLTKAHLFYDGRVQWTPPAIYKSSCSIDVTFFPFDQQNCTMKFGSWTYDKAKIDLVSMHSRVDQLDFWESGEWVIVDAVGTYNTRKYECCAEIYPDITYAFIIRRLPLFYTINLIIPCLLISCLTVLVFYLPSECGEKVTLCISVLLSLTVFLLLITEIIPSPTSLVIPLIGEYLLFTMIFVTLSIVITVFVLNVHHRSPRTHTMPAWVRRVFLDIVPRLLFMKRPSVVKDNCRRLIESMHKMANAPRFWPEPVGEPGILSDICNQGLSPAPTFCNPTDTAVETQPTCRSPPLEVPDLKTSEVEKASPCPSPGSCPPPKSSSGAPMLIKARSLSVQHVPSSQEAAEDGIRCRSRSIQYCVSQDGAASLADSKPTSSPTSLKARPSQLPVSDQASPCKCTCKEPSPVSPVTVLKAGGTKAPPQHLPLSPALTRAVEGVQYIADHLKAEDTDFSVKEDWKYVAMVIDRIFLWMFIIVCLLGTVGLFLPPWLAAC
Sequence of α4β2* nicotinic receptor (P12390 25-500): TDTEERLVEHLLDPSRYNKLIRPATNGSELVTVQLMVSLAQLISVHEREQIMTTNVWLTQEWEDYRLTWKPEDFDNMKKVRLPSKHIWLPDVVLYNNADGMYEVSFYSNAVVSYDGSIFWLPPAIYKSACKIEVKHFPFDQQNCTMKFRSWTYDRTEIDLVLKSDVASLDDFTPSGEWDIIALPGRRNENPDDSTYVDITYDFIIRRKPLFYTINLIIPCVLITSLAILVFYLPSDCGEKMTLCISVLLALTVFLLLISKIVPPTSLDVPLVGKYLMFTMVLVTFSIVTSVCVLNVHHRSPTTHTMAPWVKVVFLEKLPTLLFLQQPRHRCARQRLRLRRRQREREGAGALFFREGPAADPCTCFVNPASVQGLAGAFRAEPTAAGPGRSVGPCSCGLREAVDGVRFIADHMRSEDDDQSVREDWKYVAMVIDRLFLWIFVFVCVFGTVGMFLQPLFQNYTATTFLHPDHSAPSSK
T2 sequence (Q05941 23-502): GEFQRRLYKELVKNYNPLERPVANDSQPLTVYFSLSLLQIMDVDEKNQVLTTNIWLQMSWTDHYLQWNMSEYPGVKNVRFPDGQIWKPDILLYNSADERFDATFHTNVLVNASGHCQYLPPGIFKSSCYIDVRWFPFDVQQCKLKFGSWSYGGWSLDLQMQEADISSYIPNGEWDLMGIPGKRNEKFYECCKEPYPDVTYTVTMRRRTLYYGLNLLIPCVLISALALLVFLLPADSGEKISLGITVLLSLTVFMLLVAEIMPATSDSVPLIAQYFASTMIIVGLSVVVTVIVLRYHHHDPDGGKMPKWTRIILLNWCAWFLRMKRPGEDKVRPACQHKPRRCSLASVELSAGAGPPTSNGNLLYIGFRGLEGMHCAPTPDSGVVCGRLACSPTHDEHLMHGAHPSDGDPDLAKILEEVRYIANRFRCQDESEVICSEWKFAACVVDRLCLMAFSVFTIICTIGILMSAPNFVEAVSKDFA
Sequence of α6β2* nicotinic receptor (P43143 31-493): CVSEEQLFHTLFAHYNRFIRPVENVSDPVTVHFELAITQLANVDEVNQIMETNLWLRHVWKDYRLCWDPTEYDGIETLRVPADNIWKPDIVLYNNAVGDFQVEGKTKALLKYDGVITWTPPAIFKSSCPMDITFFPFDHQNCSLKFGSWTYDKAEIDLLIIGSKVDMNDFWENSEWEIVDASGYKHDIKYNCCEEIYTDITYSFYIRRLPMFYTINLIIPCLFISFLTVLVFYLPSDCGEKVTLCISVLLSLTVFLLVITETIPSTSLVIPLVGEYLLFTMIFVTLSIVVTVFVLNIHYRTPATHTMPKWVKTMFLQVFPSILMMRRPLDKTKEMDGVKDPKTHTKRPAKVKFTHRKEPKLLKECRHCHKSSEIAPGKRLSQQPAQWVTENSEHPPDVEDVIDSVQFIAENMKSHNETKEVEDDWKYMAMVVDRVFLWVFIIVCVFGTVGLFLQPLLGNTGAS
Sequence of α6β2* nicotinic receptor (P12390 25-500): as the sequence (P12390 25-500) above

For the molecule `CN1[C@H](CCc2ccccc2)CCC[C@@H]1CC(O)c1ccccc1` (mixture of isomers) [Compound 60], the inhibition constant Ki came to 0.16 µM in test [1] (setting [7]) and 8.9 µM in test [2] (Ki [3H]-Dopamine Uptake Assay).

For `CN1[C@@H](C[C@H](O)c2ccccc2)CCC[C@H]1/C=C/c1ccccc1` (relative stereo) [Compound 7, N-Methyl-2R-(2S-hydroxy-2-phenethyl)-6S-trans-styrylpiperidine], the Ki in test [1] (setting [8]) is more than 100 µM; in test [1] (setting [7]), 4.2 µM; in test [3] (setting [9]) it was more than 100 µM; in test [2] (setting [10]), 1.3 µM. The “loss of affinity for the nicotinic receptor compared to lobeline” value in test [1] (earlier study (Table 3)) is recorded as 1000 fold.

For the molecule `CN1C(CC(=O)c2ccccc2)CCCC1CC(O)c1ccccc1` (stereo not drawn) [Compound 1, 2-[6-(β-hydroxyphenethyl)-1-methyl-2-piperidyl]-acetophenone, reference compound], the values for the Ki in test [4] (setting [11]), in test [2] (setting [12]) and in test [2] (setting [10]) were 25.7 µM, 29.4 µM and 45 µM, respectively.

Consider `CN1[C@@H](CC(=O)c2ccccc2)CCC[C@H]1CC(=O)c1ccccc1` [Compound 3], for which the Ki was determined as 3.31 µM in test [4] (setting [11]); 37.1 µM in test [1] (setting [8]); 11 µM in test [1] (setting [7]); 22.7 µM in test [3] (setting [9]); 15.8 µM in test [2] (setting [12]); 25 µM in test [2] (setting [10]).

For the molecule `CN1[C@@H](C[C@@H](O)c2ccccc2)CCC[C@H]1C[C@H](O)c1ccccc1` [Compound 4, lobelanidine], the Ki in test [4] (setting [11]) amounted to 25.6 µM; in test [1] (setting [8]), 3.1 µM; in test [1] (setting [7]), 0.93 µM; in test [3] (setting [9]) it was 3.29 µM; in test [2] (setting [12]), 33.3 µM; in test [2] (setting [10]), 54 µM. Moreover, the “inhibition of DAT, potency compared with lobeline” value in test [2] (Table 1 data) and in test [2] (earlier study (Table 3)) was “equipotently” throughout.

For the molecule `CN1[C@H](C[C@H](O)c2ccccc2)CCC[C@@H]1/C=C/c1ccccc1` [Compound 8], the Ki was 9.8 µM in test [1] (setting [8]) and more than 100 µM in test [3].

Take `CN1[C@H](CCc2ccccc2)CCC[C@@H]1C[C@@H](O)c1ccccc1` [Compound 10, N-Methyl-2R-(2R-hydroxy-2-phenethyl)-6S-(2-phenethyl) piperidine]: the Ki in test [4] (Table 1, data of a mixture of compound 10 and 11, read-out: [3H]5-HT Uptake (Ki) SERT) was 0.01 µM; in test [4] (read-out: inhibition of serotonin uptake Ki) it was 0.01 to 0.38 µM; in test [1] (setting [8]), more than 100 µM; in test [3] (setting [9]), 1.25 µM; in test [2] ([3H]DA Uptake (Ki)) it was 6.62 µM.

For the molecule `CN1[C@H](CCc2ccccc2)CCC[C@@H]1C[C@H](O)c1ccccc1` [Compound 11, N-Methyl-2R-(2S-hydroxy-2-phenethyl)-6S-(2-phenethyl) piperidine], the values for the Ki in test [1] (setting [8]) and in test [3] (setting [9]) were 32 µM and more than 100 µM, respectively.

With `CN1[C@@H](CCc2ccccc2)CCC[C@H]1C[C@H](O)c1ccccc1` [Compound 12], the inhibition constant Ki is 1.21 µM in test [1] (setting [8]) and 36.4 µM in test [3] (setting [9]).

Turning to `CN1[C@@H](CCc2ccccc2)CCC[C@H]1CCc1ccccc1` [Compound 17, N-methyl-2,6-cis-di-(2-phenethyl)piperidine], the Ki in test [4] ([3H]5-HT Uptake (Ki) SERT) was 1.59 µM; in test [1] (setting [8]) it was 77 µM; in test [1] (setting [7]) it was 14.3 µM; in test [3] (setting [9]), 43.1 µM; in test [2] (Ki [3H]-Dopamine Uptake Assay) it was 3 µM; in test [2] ([3H]DA Uptake (Ki)), 1.95 µM. In addition, the IC50 in test [5] (Rattus norvegicus) is 0.43 to 1.25 µM; in test [5] (superfused rat striatal slices), 0.44 µM.

For `CN1[C@@H](CCc2ccccc2)CCC[C@@H]1CCc1ccccc1` [Compound 19, N-methyl-2R,6R-trans-di-(2-phenethyl)piperidine], the half-inhibitory concentration (IC50) in test [5] (Rattus norvegicus) was more than 100 µM.

For `c1ccc(CC[C@H]2CCC[C@@H](CCc3ccccc3)N2)cc1` [Compound 25, 2,6-cis-diphenethylpiperidine], the IC50 in test [6] (Table 1, inhibition of 10 μM S(−)-nicotine, NI: no inhibition, read-out: Inhibition of Nicotine-Evoked [3H]DA Overflow (IC50) α6β2*) was 0.1 µM; in test [6] (read-out: inhibition of nicotine-evoked [3H]DA overflow IC50), 0.1 to 1 µM. The Ki is 2.51 µM in test [4] (setting [11]), more than 100 µM in test [1] (setting [8]), more than 100 µM in test [3] and 1.03 µM in test [2] (setting [12]).

With `CCN1[C@@H](CCc2ccccc2)CCC[C@H]1CCc1ccccc1` [Compound 26, N-ethyl-2,6-cis-diphenethylpiperidine], the Ki in test [1] (setting [8]) and in test [3] was more than 100 µM each time.

`CCCN1[C@@H](CCc2ccccc2)CCC[C@H]1CCc1ccccc1` [Compound 27, N-(n-propyl)-2,6-cis-diphenethylpiperidine]: the Ki in test [1] (setting [8]) and in test [3] was more than 100 µM each time.

For the molecule `c1cc2c(cc1CC[C@H]1CCC[C@@H](CCc3ccc4c(c3)OCO4)N1)OCO2` [Compound 28], the inhibition constant (Ki) in test [1] (setting [8]) and in test [3] (setting [9]) was more than 100 µM throughout.

Regarding `Fc1ccccc1CC[C@H]1CCC[C@@H](CCc2ccccc2F)N1` [Compound 30, 2,6-cis-di-(o-fluorophenethyl)piperidine], the Ki in test [1] (setting [8]) and in test [3] (setting [9]) was more than 100 µM in each case.

`CN1[C@@H](CCc2ccccc2F)CCC[C@H]1CCc1ccccc1F` [Compound 31, N-methyl-2,6-cis-di-(o-fluorophenethyl)piperidine]: the Ki in test [1] (setting [8]) and in test [3] (setting [9]) was more than 100 µM each time.

Turning to `Fc1cccc(CC[C@H]2CCC[C@@H](CCc3cccc(F)c3)N2)c1` [Compound 32, 2,6-cis-di-(m-fluorophenethyl)piperidine], in test [3] (setting [9]), the Ki was more than 100 µM.

Consider `CN1[C@@H](CCc2cccc(F)c2)CCC[C@H]1CCc1cccc(F)c1` [Compound 33, N-methyl-2,6-cis-di-(m-fluorophenethyl)piperidine], for which the Ki in test [1] (setting [8]) and in test [3] (setting [9]) was more than 100 µM each time.

For the molecule `Fc1ccc(CC[C@H]2CCC[C@@H](CCc3ccc(F)cc3)N2)cc1` [Compound 34, 2,6-cis-di-(p-fluorophenethyl)piperidine], the Ki in test [1] (setting [8]) and in test [3] (setting [9]) was more than 100 µM throughout.

Regarding `CN1[C@@H](CCc2ccc(F)cc2)CCC[C@H]1CCc1ccc(F)cc1` [Compound 35, N-methyl-2,6-cis-di-(p-fluorophenethyl)piperidine], the inhibition constant Ki in test [1] (setting [8]) and in test [3] (setting [9]) was more than 100 µM each time.

For `COc1ccccc1CC[C@H]1CCC[C@@H](CCc2ccccc2OC)N1` [Compound 36, 2,6-cis-di-(o-methoxyphenethyl)piperidine], the Ki in test [1] (setting [8]) and in test [3] (setting [9]) was more than 100 µM throughout.

Take `COc1cccc(CC[C@H]2CCC[C@@H](CCc3cccc(OC)c3)N2)c1` [Compound 38, 2,6-cis-di-(m-methoxyphenethyl)piperidine]: the inhibition constant Ki in test [1] (setting [8]) and in test [3] (setting [9]) was more than 100 µM in each case.

For the molecule `COc1ccc(CC[C@H]2CCC[C@@H](CCc3ccc(OC)cc3)N2)cc1` [Compound 40, 2,6-cis-di-(p-methoxyphenethyl)piperidine], the Ki in test [1] (setting [8]) and in test [3] (setting [9]) was more than 100 µM throughout.

As to `COc1ccc(CC[C@H]2CCC[C@@H](CCc3ccc(OC)cc3)N2C)cc1` [Compound 41, N-methyl-2,6-cis-di-(p-methoxyphenethyl)piperidine], the Ki in test [1] (setting [8]) and in test [3] (setting [9]) was more than 100 µM throughout.

As for `Cc1ccc(CC[C@H]2CCC[C@@H](CCc3ccc(C)cc3)N2)cc1` [Compound 42, 2,6-cis-di-(p-methylphenethyl)piperidine], the Ki in test [1] (setting [8]) and in test [3] (setting [9]) was more than 100 µM in each case.

Regarding `Cc1ccc(CC[C@H]2CCC[C@@H](CCc3ccc(C)cc3)N2C)cc1` [Compound 43, N-methyl-2,6-cis-di-(p-methylphenethyl)piperidine], in test [3] (setting [9]), the Ki was more than 100 µM.

Take `FC(F)(F)c1cccc(CC[C@H]2CCC[C@@H](CCc3cccc(C(F)(F)F)c3)N2)c1` [Compound 44, 2,6-cis-di-(m-trifluoromethylphenethyl)piperidine]: the Ki in test [1] (setting [8]) and in test [3] (setting [9]) was more than 100 µM each time.

As to `CN1[C@@H](CCc2cccc(C(F)(F)F)c2)CCC[C@H]1CCc1cccc(C(F)(F)F)c1` [Compound 45, N-methyl-2,6-cis-di-(m-trifluoromethylphenethyl)piperidine], the Ki in test [1] (setting [8]) and in test [3] (setting [9]) was more than 100 µM throughout.

`OCc1ccc(CC[C@H]2CCC[C@@H](CCc3ccc(CO)cc3)N2)cc1` [Compound 48, 2,6-cis-di-(p-hydroxymethylphenethyl)piperidine]: the Ki in test [1] (setting [8]) and in test [3] (setting [9]) was more than 100 µM each time.

In the case of `CC(=O)OCc1ccc(CC[C@H]2CCC[C@@H](CCc3ccc(COC(C)=O)cc3)N2)cc1` [Compound 49, 2,6-cis-di-(p-acetoxymethylphenethyl)piperidine], the Ki in test [1] (setting [8]) and in test [3] (setting [9]) was more than 100 µM throughout.

With `Clc1ccc(CC[C@H]2CCC[C@@H](CCc3ccc(Cl)cc3Cl)N2)c(Cl)c1` [Compound 50, 2,6-cis-di-(2,4-dichlorophenethyl)piperidine], the Ki in test [1] (setting [8]) and in test [3] (setting [9]) was more than 100 µM throughout.

Turning to `CN1[C@@H](CCc2ccc(Cl)cc2Cl)CCC[C@H]1CCc1ccc(Cl)cc1Cl` [Compound 51, N-methyl-2,6-cis-di-(2,4-dichlorophenethyl)piperidine], the Ki in test [1] (setting [8]) and in test [3] (setting [9]) was more than 100 µM in each case.

A word on the Ki: it is a measure of affinity in units of concentration, obtained from inhibition or displacement. Broadly, the IC50 is the point on the concentration scale where inhibition reaches its midpoint.

The values above are taken from US7368443B2, “2,6-disubstituted piperidines and piperazine compounds” (University of Kentucky Research Foundation, priority 1999, dated 2008).
